From patent US20160208246A1, “COMPOSITIONS AND METHODS FOR TREATING A HEMATOLOGICAL MALIGNANCY ASSOCIATED WITH AN ALTERED RUNX1 ACTIVITY OR EXPRESSION” (YEDA RESEARCH AND DEVELOPMENT CO. LTD., priority 2013, published 2016) come the findings set out here.

Residues, ends and D or L forms follow the SMILES beside them. *: point of attachment. Cbz = O=C(OCc1ccccc1)*; CH2F = FC*

In assay [1] the test system is Kasumi-1 cells. The experiment in a line: Cell cycle analysis (Propidium iodide, FACS). Particulars: 50 μM, 24 hrs, three days post siRNA-delivery. In kind it is cell-based, human. From the text: FIGS. 1B and 1C illustrate cell cycle analysis 8 days post transfection with either RUNX1-targeting (SEQ ID NO: 52) or control non-targeting (NT) siRNA. FIG. 1B illustrates cells which were subjected to two successive transfections (at days 0 and 4) with either RUNX1-targeting or NT siRNA. Propidium iodide (PI) was used to assess cellular DNA content by FACS analysis. Bar numbers indicate the relative size (in %) of labeled population out of total cells. Indicated cell cycle phases: subG1; G1; S and G2M; and FIG. 1C are histograms summarizing the distribution of cell population as analyzed in FIG. 1B. Data represents mean±STDV values of five independent experiments.
FIG. 1H illustrates that caspase inhibition rescues Kasumi-1^RX1-KD from apoptosis. […] Histograms show the distribution of cells among cell cycle phases determined as detailed above. […]
FIGS. 2C-2G illustrate that KD of A-E rescues Kasumi-1 cells from RUNX1 KD-induced apoptosis. […] FIGS. 2C-2F, following incubation for 8 days, cells were stained with PI and analyzed by FACS for cell cycle; and FIG. 2G are histograms showing the distribution of cells among cell cycle phases. […]
For cell cycle analysis, cells were stained with Propidium iodide (Sigma-Aldrich) according to standard procedure. […] All data were collected using LSRII flow cytometer (BD Biosciences) and analyzed by FlowJo software.

For assay [2], the system named is RUNX1. The experiment in a line: siRNA-mediated RUNX1 KD in Kasumi-1 cells (RT-qPCR, Western blotting). In kind it is cell-based, human. Particulars: Western blot, 50 μM, 24 hrs after 72 hrs siRNA. From the text:
FIG. 1A, upper panel, is a schematic illustration of RUNX1 (blue) and RUNX1-ETO (A-E) (blue-red) transcripts indicating regions targeted by the siRNAs used to knock down (KD) expression of either RUNX1 (bars underneath RUNX1 marked in green and orange) or A-E (black bar underneath A-E fusion region). […] NO: 49) (as marked in green in the upper panel). Total RNA isolated 24 hrs post electroporation of RUNX1-targeting or non-targeting (NT) control siRNA. Data shown represent mean expression±SE. Shown are results from one of three experiments with the same findings. Primers used for RT-qPCR are presented in Table 1 (in the Examples section which follows). […] Blots were reacted with an antibody (Ab) against RUNX1-N-terminus or Lamin. Results from one of two experiments with the same findings are shown. […] KD efficiency was assessed both by RT-qPCR and immunoblotting. […] Cells were collected, washed once in PBS, and nuclear proteins were extracted and analyzed by Western blotting as previously described [Aziz-Aloya, R. et al., Cell Death (1998) 5, 765-773]. […] Quantitation of cDNAs was performed by qPCR using Roche LC480 LightCycler with sequence-specific primers (Table 1, below) and miScript SYBR Green PCR kit (QIAGEN). Target transcript quantification was calculated relative to ACTB mRNA, which served as an internal control. Standard errors were calculated using REST.

For `COC(=O)C[C@H](NC(=O)[C@H](C)NC(=O)[C@@H](NC(=O)OCc1ccccc1)C(C)C)C(=O)CF` [Z-VAD-FMK] (Cbz-Val-Ala-Asp(OMe)-CH2F), in assay [1], the “apoptosis in Kasumi-1^RX1-KD cells” value was “completely blocked apoptosis” and the “subG1 fraction of Kasumi-1^RX1-KD cells” value is listed as “profound decrease”. Besides, the “RUNX1 protein levels in Kasumi-1^RX1-KD cells” value in assay [2] is on record as “further reduced”.
